From paper PMC12655719, “Evaluating the Effectiveness of Reference Solvent Solubility Calculations for Binary Mixtures Based on Pure Solvent Solubility: The Case of Phenolic Acids” (Molecules, 2025)

Experiment: Solubility determination of saturated solutions (shaking 24 h at 25 °C, filtration, HPLC/UPLC-UV quantification)
Format: physicochemical
Details: for log(x1)exp: 1,4-dioxane + Water, code 1 (this work)
Protocol: In the case of binary mixtures, the organic solvent was mixed with water in appropriate molar fractions. Water was also used as a single-component solvent. For each system, three replicate samples were prepared.
The prepared samples were placed in an Orbital Shaker ES-20/60 incubator from Biosan (Riga, Latvia) and shaken for 24 h at 25 °C. The temperature was maintained with an accuracy of ±0.1 °C. During the equilibration process, the samples were agitated at a rate of 60 rpm while being thermostated.
Following equilibration, the samples were filtered through PTFE syringe filters with a 0.22 µm pore size. To prevent precipitation during this step, all test tubes, syringes, and filters were preheated to the corresponding temperature of the solution. Subsequently, an aliquot of the filtrate was transferred to a vial for chromatographic analysis.
Prior to injection, samples were diluted with methanol and injected into a Luna C18 column (250 × 10 mm) equipped with a guard column, both from Phenomenex (Torrance, CA, USA). The injection volume was 100 µL, and the column temperature was maintained at 30 °C. The mobile phase consisted of 0.5% acetic acid (A) and acetonitrile (B), applied with a linear gradient at a flow rate of 5 mL/min: initially 2% B; 1–7 min, 2–50% B; 7–9 min, 50% B; 9–9.5 min, 50–2% B; and 9–18 min, 2% B. The UV absorbance was monitored in the range of 210–400 nm. The chromatographic system was operated with MassLynx 4.1 software (Waters, […], USA). Quantitative analysis was performed using the TargetLynx application at 293 nm. All samples were analyzed in triplicate (technical replicates).
The system included the Acquity Binary Solvent Manager, Acquity Sample Manager, and Acquity Column Manager (Waters, Milford, CT, USA). Prior to analysis, samples were diluted with methanol, and 0.3 µL was injected. Separation was performed on a ACQUITY UPLC CSH C18 column (1.7 µm, 2.1 × 30 mm, Waters, Milford, CT, USA) maintained at 40 °C. UV detection was carried out at 293 nm using a tunable dual-wavelength UV/Vis detector (TUV, Waters, Milford, CT, USA). […] Each sample was analyzed in three technical replicates.
To calculate mole fractions of the solutes, the density of each saturated solution was determined by weighing 1 mL of the sample using an analytical balance (RADWAG AS 110.R2 PLUS; Radwag, Radom, Poland).

log(x1)exp (x2* 0.00, x3* 1.00, T 25.0 °C): -4.023
log(x1)exp (x2* 0.10, x3* 0.90, T 25.0 °C): -2.614
log(x1)exp (x2* 0.20, x3* 0.80, T 25.0 °C): -1.897
log(x1)exp (x2* 0.30, x3* 0.70, T 25.0 °C): -1.603
log(x1)exp (x2* 0.40, x3* 0.60, T 25.0 °C): -1.455
x1 × 102 (mole fraction of solute) (1,4-dioxane-water, x2* = 0.0, 25 °C): 0.009 mole fraction × 102
x1 × 102 (mole fraction of solute) (1,4-dioxane-water, x2* = 0.1, 25 °C): 0.243 mole fraction × 102
x1 × 102 (mole fraction of solute) (1,4-dioxane-water, x2* = 0.2, 25 °C): 1.269 mole fraction × 102
x1 × 102 (mole fraction of solute) (1,4-dioxane-water, x2* = 0.3, 25 °C): 2.495 mole fraction × 102
x1 × 102 (mole fraction of solute) (1,4-dioxane-water, x2* = 0.4, 25 °C): 3.504 mole fraction × 102
x1 × 102 (mole fraction of solute) (1,4-dioxane-water, x2* = 0.5, 25 °C): 4.260 mole fraction × 102
x1 × 102 (mole fraction of solute) (1,4-dioxane-water, x2* = 0.6, 25 °C): 4.647 mole fraction × 102
x1 × 102 (mole fraction of solute) (1,4-dioxane-water, x2* = 0.7, 25 °C): 4.698 mole fraction × 102
x1 × 102 (mole fraction of solute) (1,4-dioxane-water, x2* = 0.8, 25 °C): 4.232 mole fraction × 102
x1 × 102 (mole fraction of solute) (1,4-dioxane-water, x2* = 0.9, 25 °C): 2.850 mole fraction × 102
x1 × 102 (mole fraction of solute) (1,4-dioxane-water, x2* = 1.0, 25 °C): 1.634 mole fraction × 102
mole fraction solubility (x1) (1,4-dioxane–water, x2* = 0.0 (pure water), 25 °C): 9.0 × 10^−5 mole fraction
mole fraction solubility (x1) (1,4-dioxane–water, x2* = 0.7, 25 °C): 4.698 × 10^−2 mole fraction
x1 × 102 (mole fraction of solute) (4-FM-water, x2* = 0.1, 25 °C): 0.785 mole fraction × 102
x1 × 102 (mole fraction of solute) (4-FM-water, x2* = 0.2, 25 °C): 2.306 mole fraction × 102
x1 × 102 (mole fraction of solute) (4-FM-water, x2* = 0.3, 25 °C): 4.043 mole fraction × 102
x1 × 102 (mole fraction of solute) (4-FM-water, x2* = 0.4, 25 °C): 6.072 mole fraction × 102
x1 × 102 (mole fraction of solute) (4-FM-water, x2* = 0.5, 25 °C): 7.935 mole fraction × 102
x1 × 102 (mole fraction of solute) (4-FM-water, x2* = 0.6, 25 °C): 10.036 mole fraction × 102
x1 × 102 (mole fraction of solute) (4-FM-water, x2* = 0.7, 25 °C): 11.977 mole fraction × 102
x1 × 102 (mole fraction of solute) (4-FM-water, x2* = 0.8, 25 °C): 13.855 mole fraction × 102
x1 × 102 (mole fraction of solute) (4-FM-water, x2* = 0.9, 25 °C): 15.930 mole fraction × 102
x1 × 102 (mole fraction of solute) (4-FM-water, x2* = 1.0, 25 °C): 17.932 mole fraction × 102
x1 × 102 (mole fraction of solute) (DMSO-water, x2* = 0.1, 25 °C): 0.209 mole fraction × 102
x1 × 102 (mole fraction of solute) (DMSO-water, x2* = 0.2, 25 °C): 1.527 mole fraction × 102
x1 × 102 (mole fraction of solute) (DMSO-water, x2* = 0.3, 25 °C): 4.718 mole fraction × 102
x1 × 102 (mole fraction of solute) (DMSO-water, x2* = 0.4, 25 °C): 11.316 mole fraction × 102
x1 × 102 (mole fraction of solute) (DMSO-water, x2* = 0.5, 25 °C): 20.824 mole fraction × 102
x1 × 102 (mole fraction of solute) (DMSO-water, x2* = 0.6, 25 °C): 28.915 mole fraction × 102
x1 × 102 (mole fraction of solute) (DMSO-water, x2* = 0.7, 25 °C): 33.598 mole fraction × 102
x1 × 102 (mole fraction of solute) (DMSO-water, x2* = 0.8, 25 °C): 34.931 mole fraction × 102
x1 × 102 (mole fraction of solute) (DMSO-water, x2* = 0.9, 25 °C): 31.904 mole fraction × 102
x1 × 102 (mole fraction of solute) (DMSO-water, x2* = 1.0, 25 °C): 22.675 mole fraction × 102
mole fraction solubility (x1) (DMSO–water, x2* = 0.8, 25 °C): 34.931 × 10^−2 mole fraction
mole fraction solubility (x1) (pure 1,4-dioxane (x2* = 1.0), 25 °C): 1.634 × 10^−2 mole fraction
mole fraction solubility (x1) (pure 4-FM (4-formylmorpholine, x2* = 1.0), 25 °C): 17.932 × 10^−2 mole fraction
mole fraction solubility (x1) (pure DMSO, 25 °C): 22.675 × 10^−2 mole fraction
SMILES: O=C(O)/C=C/c1ccc(O)c(O)c1 [caffeic acid, Caffeic acid]
